# Structures can show the parent of a compound that is named as a salt.
# System: hepatocytes
# Test: RNA-seq of hepatocytes treated with Phase III failure compounds
# Conditions: for significant modulation of expression of disease genes: q≤0.05, genes in the value or listed in the block; for B2M expression, RNA-seq result: gene B2M; for B9D2 expression, RNA-seq result: gene B9D2; for BAAT expression, RNA-seq result: gene BAAT; for BBOX1 expression, RNA-seq result: gene BBOX1; for BBS10 expression, RNA-seq result: gene BBS10; for BCHE expression, RNA-seq result: gene BCHE; for BCKDHB expression, RNA-seq result: gene BCKDHB; for BCKDK expression, RNA-seq result: gene BCKDK; for BCO1 expression, RNA-seq result: gene BCO1; for BCR expression, RNA-seq result: gene BCR; for BLNK expression, RNA-seq result: gene BLNK; for BLOC1S3 expression, RNA-seq result: gene BLOC1S3; for BMPR1A expression, RNA-seq result: gene BMPR1A; for BRAF expression, RNA-seq result: gene BRAF; for BSCL2 expression, RNA-seq result: gene BSCL2; for BTD expression, RNA-seq result: gene BTD; for C4A expression, RNA-seq result: gene C4A; for C9 expression, RNA-seq result: gene C9; for C10orf10 expression, RNA-seq result: gene C10orf10; for C10orf11 expression, RNA-seq result: gene C10orf11; for C15orf41 expression, RNA-seq result: gene C15orf41; for CA2 expression, RNA-seq result: gene CA2; for CA5A expression, RNA-seq result: gene CA5A; for CA12 expression, RNA-seq result: gene CA12; for CAV1 expression, RNA-seq result: gene CAV1; for CCND1 expression, RNA-seq result: gene CCND1; for CD46 expression, RNA-seq result: gene CD46; for CD81 expression, RNA-seq result: gene CD81; for CD320 expression, RNA-seq result: gene CD320; for CDAN1 expression, RNA-seq result: gene CDAN1; for CDH1 expression, RNA-seq result: gene CDH1; for CEP19 expression, RNA-seq result: gene CEP19; for CEP83 expression, RNA-seq result: gene CEP83; for CEP164 expression, RNA-seq result: gene CEP164; for CEP290 expression, RNA-seq result: gene CEP290; for CFB expression, RNA-seq result: gene CFB; for CFHR2 expression, RNA-seq result: gene CFHR2; for CHRM3 expression, RNA-seq result: gene CHRM3; for CIDEC expression, RNA-seq result: gene CIDEC; for CLDN1 expression, RNA-seq result: gene CLDN1; for COG1 expression, RNA-seq result: gene COG1
# Experimental: RNA-seq was performed to determine the effects of the compounds on hepatocytes.
# Significance was determined by the criteria of FPKM≥0.5, a log 2(fold-change)≥1, and a […].
smiles,measurement,setting,value
"Fc1ccc(C(OCCN2CCN(CCCc3ccccc3)CC2)c2ccc(F)cc2)cc1 [Vanoxerine (dihydrochloride), Vanoxerine]",significant modulation of expression of disease genes,"RNA-seq, hepatocytes",significantly (q≤0.05) modulate expression of HMOX1
same,"B2M expression, RNA-seq result",hepatocytes,−0.07
same,"B9D2 expression, RNA-seq result",hepatocytes,0.29
same,"BAAT expression, RNA-seq result",hepatocytes,0.01
same,"BBOX1 expression, RNA-seq result",hepatocytes,0.01
same,"BBS10 expression, RNA-seq result",hepatocytes,−0.41
same,"BCHE expression, RNA-seq result",hepatocytes,−0.5
same,"BCKDHB expression, RNA-seq result",hepatocytes,−0.06
same,"BCKDK expression, RNA-seq result",hepatocytes,0.02
same,"BCO1 expression, RNA-seq result",hepatocytes,0.08
same,"BCR expression, RNA-seq result",hepatocytes,0.04
same,"BLNK expression, RNA-seq result",hepatocytes,0.18
same,"BLOC1S3 expression, RNA-seq result",hepatocytes,0.46
same,"BMPR1A expression, RNA-seq result",hepatocytes,0
same,"BRAF expression, RNA-seq result",hepatocytes,0.2
same,"BSCL2 expression, RNA-seq result",hepatocytes,−0.45
same,"BTD expression, RNA-seq result",hepatocytes,−0.16
same,"C4A expression, RNA-seq result",hepatocytes,0.05
same,"C9 expression, RNA-seq result",hepatocytes,−0.2
same,"C10orf10 expression, RNA-seq result",hepatocytes,0.02
same,"C10orf11 expression, RNA-seq result",hepatocytes,0.18
same,"C15orf41 expression, RNA-seq result",hepatocytes,0.13
same,"CA2 expression, RNA-seq result",hepatocytes,0.53
same,"CA5A expression, RNA-seq result",hepatocytes,0.24
same,"CA12 expression, RNA-seq result",hepatocytes,0.77
same,"CAV1 expression, RNA-seq result",hepatocytes,−0.47
same,"CCND1 expression, RNA-seq result",hepatocytes,−0.33
same,"CD46 expression, RNA-seq result",hepatocytes,−0.14
same,"CD81 expression, RNA-seq result",hepatocytes,0.3
same,"CD320 expression, RNA-seq result",hepatocytes,0.17
same,"CDAN1 expression, RNA-seq result",hepatocytes,0.25
same,"CDH1 expression, RNA-seq result",hepatocytes,−0.29
same,"CEP19 expression, RNA-seq result",hepatocytes,−0.07
same,"CEP83 expression, RNA-seq result",hepatocytes,−0.12
same,"CEP164 expression, RNA-seq result",hepatocytes,0.12
same,"CEP290 expression, RNA-seq result",hepatocytes,−0.14
same,"CFB expression, RNA-seq result",hepatocytes,0.02
same,"CFHR2 expression, RNA-seq result",hepatocytes,−0.46
same,"CHRM3 expression, RNA-seq result",hepatocytes,−0.06
same,"CIDEC expression, RNA-seq result",hepatocytes,0.1
same,"CLDN1 expression, RNA-seq result",hepatocytes,−0.37
same,"COG1 expression, RNA-seq result",hepatocytes,0.06
"Cn1c(COP(=O)(NCCBr)NCCBr)cnc1[N+](=O)[O-] [TH-302 (Evofosfamide), Evofosfamide]",Number (#) of genes having significantly changed expression,,28
same,significant modulation of expression of disease genes,"RNA-seq, hepatocytes","significantly (q≤0.05) modulate expression of the following genes: FAM111B, FGFR2, PKHD1, and RMRP"
same,"B2M expression, RNA-seq result",hepatocytes,0.16
same,"B9D2 expression, RNA-seq result",hepatocytes,−0.2
same,"BAAT expression, RNA-seq result",hepatocytes,0.12
same,"BBOX1 expression, RNA-seq result",hepatocytes,0.35
same,"BBS10 expression, RNA-seq result",hepatocytes,0.24
same,"BCHE expression, RNA-seq result",hepatocytes,−0.07
same,"BCKDHB expression, RNA-seq result",hepatocytes,−0.17
same,"BCKDK expression, RNA-seq result",hepatocytes,0.04
same,"BCO1 expression, RNA-seq result",hepatocytes,−0.28
same,"BCR expression, RNA-seq result",hepatocytes,−0.01
same,"BLNK expression, RNA-seq result",hepatocytes,−0.2
same,"BLOC1S3 expression, RNA-seq result",hepatocytes,0.04
same,"BMPR1A expression, RNA-seq result",hepatocytes,−0.05
same,"BRAF expression, RNA-seq result",hepatocytes,−0.01
same,"BSCL2 expression, RNA-seq result",hepatocytes,−0.03
same,"BTD expression, RNA-seq result",hepatocytes,−0.16
same,"C4A expression, RNA-seq result",hepatocytes,−0.36
same,"C9 expression, RNA-seq result",hepatocytes,0.16
same,"C10orf10 expression, RNA-seq result",hepatocytes,−0.2
same,"C10orf11 expression, RNA-seq result",hepatocytes,−0.71
same,"C15orf41 expression, RNA-seq result",hepatocytes,0.08
same,"CA2 expression, RNA-seq result",hepatocytes,0.11
same,"CA5A expression, RNA-seq result",hepatocytes,−0.1
same,"CA12 expression, RNA-seq result",hepatocytes,0.32
same,"CAV1 expression, RNA-seq result",hepatocytes,0.13
same,"CCND1 expression, RNA-seq result",hepatocytes,0.16
same,"CD46 expression, RNA-seq result",hepatocytes,0.08
same,"CD81 expression, RNA-seq result",hepatocytes,0.09
same,"CD320 expression, RNA-seq result",hepatocytes,0.17
same,"CDAN1 expression, RNA-seq result",hepatocytes,0.11
same,"CDH1 expression, RNA-seq result",hepatocytes,−0.56
same,"CEP19 expression, RNA-seq result",hepatocytes,−0.02
same,"CEP83 expression, RNA-seq result",hepatocytes,−0.06
same,"CEP164 expression, RNA-seq result",hepatocytes,−0.03
same,"CEP290 expression, RNA-seq result",hepatocytes,0.16
same,"CFB expression, RNA-seq result",hepatocytes,0.01
same,"CFHR2 expression, RNA-seq result",hepatocytes,0.13
same,"CHRM3 expression, RNA-seq result",hepatocytes,−0.58
same,"CIDEC expression, RNA-seq result",hepatocytes,−0.06
same,"CLDN1 expression, RNA-seq result",hepatocytes,−0.05
same,"COG1 expression, RNA-seq result",hepatocytes,0.12
CNC1(C)[C@H]2CCC(C2)C1(C)C.Cl (stereo partly drawn) [S-(+)-MecaMylaMine Hydrochloride],significant changes in gene expression,"RNA-seq of Table 36, FPKM≥0.5, log 2(fold-change)≥1, q-value≤0.05",not observed to cause any significant changes in gene expression
same,significant modulation of expression of any of the genes analyzed,"RNA-seq, p≤0.05, hepatocytes",not observed to significantly modulate expression

# Source: patent publication US20210254056A1, “IDENTIFICATION AND TARGETED MODULATION OF GENE SIGNALING NETWORKS” (CAMP4 THERAPEUTICS CORPORATION, priority 2017, published 2021)
